Reference: ChEMBL document CHEMBL1201862, “PubChem BioAssay data set” (2004)
Active and inactive are the calls of the source.

What was measured:
[1] = inhibitors of HIV Env-driven cell fusion, dose response, cherry-pick (AID 652057); type: functional, cell-based
[2] = target: FAD-linked sulfhydryl oxidase ALR (Homo sapiens, UniProt P55789); assay: inhibitors of human ALR sulfhydryl oxidase, dose response, biochemical, H2O2 detection, luminescence, cherry-pick (AID 493248)
Protein skinhead-1 = target: T1, Protein skinhead-1 (Caenorhabditis elegans, UniProt P34707); type: functional
T1 sequence (P34707 whole entry): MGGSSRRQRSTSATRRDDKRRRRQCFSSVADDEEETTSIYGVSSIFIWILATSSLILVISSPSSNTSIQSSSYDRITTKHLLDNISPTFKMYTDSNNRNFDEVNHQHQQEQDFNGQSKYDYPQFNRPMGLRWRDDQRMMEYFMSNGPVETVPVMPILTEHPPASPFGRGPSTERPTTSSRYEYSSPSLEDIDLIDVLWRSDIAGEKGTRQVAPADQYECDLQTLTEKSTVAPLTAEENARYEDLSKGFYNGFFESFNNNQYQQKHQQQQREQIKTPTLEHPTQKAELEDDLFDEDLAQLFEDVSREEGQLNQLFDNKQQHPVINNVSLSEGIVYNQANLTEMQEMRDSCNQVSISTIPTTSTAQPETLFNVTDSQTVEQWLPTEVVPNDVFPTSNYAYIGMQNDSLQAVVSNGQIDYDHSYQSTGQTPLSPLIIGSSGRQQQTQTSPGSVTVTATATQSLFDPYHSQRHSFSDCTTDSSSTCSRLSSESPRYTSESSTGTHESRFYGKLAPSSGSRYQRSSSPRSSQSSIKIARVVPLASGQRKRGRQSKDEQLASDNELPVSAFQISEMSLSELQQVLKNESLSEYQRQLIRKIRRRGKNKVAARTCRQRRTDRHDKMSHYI

[3] = target: T2, Rac GTPase-activating protein 1 (Homo sapiens, UniProt Q9H0H5); assay: MgcRacGAP GTPase-activating activity inhibitors, confirmation, biochemical, ADP Hunter fluorescence, primary and confirmatory (AID 624330); type: functional
T2 sequence (Q9H0H5 whole entry): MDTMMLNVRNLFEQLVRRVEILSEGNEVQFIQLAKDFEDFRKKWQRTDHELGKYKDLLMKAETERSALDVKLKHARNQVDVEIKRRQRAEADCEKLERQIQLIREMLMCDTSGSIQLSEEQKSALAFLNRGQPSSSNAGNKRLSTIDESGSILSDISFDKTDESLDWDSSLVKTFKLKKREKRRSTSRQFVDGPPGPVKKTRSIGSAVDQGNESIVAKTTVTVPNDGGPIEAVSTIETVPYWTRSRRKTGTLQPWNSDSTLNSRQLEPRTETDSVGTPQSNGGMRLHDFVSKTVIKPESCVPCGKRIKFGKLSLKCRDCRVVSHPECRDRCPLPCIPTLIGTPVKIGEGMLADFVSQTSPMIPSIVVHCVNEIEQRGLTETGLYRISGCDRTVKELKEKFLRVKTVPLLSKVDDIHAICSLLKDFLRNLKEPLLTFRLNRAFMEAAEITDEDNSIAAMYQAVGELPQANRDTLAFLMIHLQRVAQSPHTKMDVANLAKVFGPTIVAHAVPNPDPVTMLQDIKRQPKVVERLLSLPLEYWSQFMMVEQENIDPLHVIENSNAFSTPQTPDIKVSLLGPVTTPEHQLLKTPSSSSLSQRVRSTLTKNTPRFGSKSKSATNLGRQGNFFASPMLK

[4] = target: T3, Zinc finger protein mex-5 (Caenorhabditis elegans, UniProt Q9XUB2); assay: MEX-5/TCR-2 RNA interaction inhibitors, dose response, biochemical, C. elegans, fluorescence polarization (AID 1960)
T3 sequence (Q9XUB2 whole entry): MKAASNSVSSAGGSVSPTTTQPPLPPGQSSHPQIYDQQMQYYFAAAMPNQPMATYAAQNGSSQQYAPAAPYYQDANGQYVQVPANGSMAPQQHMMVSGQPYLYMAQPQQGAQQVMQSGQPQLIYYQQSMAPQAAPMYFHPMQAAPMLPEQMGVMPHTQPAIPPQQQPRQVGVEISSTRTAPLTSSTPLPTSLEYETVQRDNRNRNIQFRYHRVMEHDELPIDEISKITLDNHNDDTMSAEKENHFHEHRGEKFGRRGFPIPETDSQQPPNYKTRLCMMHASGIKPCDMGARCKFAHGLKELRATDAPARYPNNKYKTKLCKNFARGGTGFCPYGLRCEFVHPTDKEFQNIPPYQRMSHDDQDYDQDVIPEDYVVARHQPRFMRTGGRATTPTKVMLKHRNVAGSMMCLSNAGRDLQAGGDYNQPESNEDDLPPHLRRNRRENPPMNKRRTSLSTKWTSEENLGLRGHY

[5] = target: T4, RNA-binding protein pos-1 (Caenorhabditis elegans, UniProt G5EF15); assay: inhibitors of POS-1/mex-3 RNA binding, dose response, biochemical, fluorescence polarization (AID 1964);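 note: purified POS-1 fused to maltose binding protein made in E. coli; potency of compounds blocking POS-1 binding to fluorescent RNA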
T4 sequence (G5EF15 whole entry): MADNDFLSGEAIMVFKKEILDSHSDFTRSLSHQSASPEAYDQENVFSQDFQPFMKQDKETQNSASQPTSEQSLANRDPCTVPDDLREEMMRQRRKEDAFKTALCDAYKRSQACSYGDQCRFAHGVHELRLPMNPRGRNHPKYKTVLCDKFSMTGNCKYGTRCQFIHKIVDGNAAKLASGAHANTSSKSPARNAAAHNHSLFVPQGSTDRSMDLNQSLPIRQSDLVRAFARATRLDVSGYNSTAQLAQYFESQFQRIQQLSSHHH

Large T antigen = Large T antigen (Simian virus 40, UniProt P03070); type: functional, Betapolyomavirus macacae;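 note: Confirmatory-stage PubChem screen for compounds that inhibit SV40 T antigen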
[6] = target: T5, Carboxy-terminal domain RNA polymerase II polypeptide A small phosphatase 1 (Homo sapiens, UniProt Q9GZU7); assay: inhibitors of CTDSP1, concentration-response testing, biochemical assay, absorbance-based, actives from ultra-high-throughput screening (AID 540297); type: functional
T5 sequence (Q9GZU7 whole entry): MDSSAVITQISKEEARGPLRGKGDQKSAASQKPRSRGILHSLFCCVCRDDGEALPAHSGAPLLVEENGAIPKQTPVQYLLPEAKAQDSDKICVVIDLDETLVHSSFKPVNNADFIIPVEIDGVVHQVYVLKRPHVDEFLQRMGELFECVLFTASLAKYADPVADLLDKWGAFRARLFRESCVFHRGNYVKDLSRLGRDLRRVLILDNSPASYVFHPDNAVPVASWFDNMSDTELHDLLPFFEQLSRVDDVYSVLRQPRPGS

[7] = P. falciparum Dd2 growth inhibitors, dose response, SYBR Green, cherry-picked samples (AID 1159567); type: functional, cell-based
[8] = target: T6, Calpain-2 catalytic subunit (Sus scrofa, UniProt P43367); assay: pig calpain II inhibitor potency, dose response, biochemical, fluorogenic peptide substrate (AID 1420); type: functional
T6 sequence (P43367 whole entry): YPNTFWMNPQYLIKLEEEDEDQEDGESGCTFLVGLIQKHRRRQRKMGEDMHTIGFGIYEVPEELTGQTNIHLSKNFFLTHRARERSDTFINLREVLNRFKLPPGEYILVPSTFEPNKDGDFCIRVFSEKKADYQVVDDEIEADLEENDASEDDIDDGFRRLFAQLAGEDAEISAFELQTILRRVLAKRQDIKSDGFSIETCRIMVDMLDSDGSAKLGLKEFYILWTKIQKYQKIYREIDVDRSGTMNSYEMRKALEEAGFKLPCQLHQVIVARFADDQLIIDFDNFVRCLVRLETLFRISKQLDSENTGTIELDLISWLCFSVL

[9] = inhibitors of clade B AD8 Env fusion, dose response, cell-based, cherry-pick (AID 652062); type: functional;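 note: luciferase signal from cell-cell fusion driven by HIV-1 clade B AD8 Env; potency is for inhibitors of fusion seen as a drop in luminescence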
Cytochrome P450 2C9 = Cytochrome P450 2C9 (Homo sapiens, UniProt P11712)
[10] = ZM109 Env clade C HIV-1 fusion inhibitors, dose response, HeLa effector, CEM target cells, luciferase, cherry-pick (AID 652058); type: functional, cell-based

Chain of Large T antigen (P03070 whole entry, the tested form may be a part): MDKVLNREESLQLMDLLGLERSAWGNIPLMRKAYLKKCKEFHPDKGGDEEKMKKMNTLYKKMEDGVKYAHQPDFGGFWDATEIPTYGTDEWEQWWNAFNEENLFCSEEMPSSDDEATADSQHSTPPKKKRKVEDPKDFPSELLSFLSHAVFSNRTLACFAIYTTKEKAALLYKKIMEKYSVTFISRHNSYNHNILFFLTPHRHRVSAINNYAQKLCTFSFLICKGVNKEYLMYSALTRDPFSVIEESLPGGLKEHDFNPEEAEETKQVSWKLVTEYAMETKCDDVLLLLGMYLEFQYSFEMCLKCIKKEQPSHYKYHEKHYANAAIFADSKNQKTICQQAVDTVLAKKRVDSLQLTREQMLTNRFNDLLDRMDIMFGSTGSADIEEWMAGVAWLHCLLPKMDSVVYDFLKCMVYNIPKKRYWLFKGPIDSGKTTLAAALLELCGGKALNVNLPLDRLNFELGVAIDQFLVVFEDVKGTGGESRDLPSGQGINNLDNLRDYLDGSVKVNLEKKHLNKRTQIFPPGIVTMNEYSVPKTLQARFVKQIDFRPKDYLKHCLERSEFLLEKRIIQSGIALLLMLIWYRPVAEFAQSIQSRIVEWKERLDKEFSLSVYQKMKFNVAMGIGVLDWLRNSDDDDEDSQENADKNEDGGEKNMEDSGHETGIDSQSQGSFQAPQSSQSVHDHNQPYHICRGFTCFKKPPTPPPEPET
Chain of FAD-linked sulfhydryl oxidase ALR (P55789 whole entry): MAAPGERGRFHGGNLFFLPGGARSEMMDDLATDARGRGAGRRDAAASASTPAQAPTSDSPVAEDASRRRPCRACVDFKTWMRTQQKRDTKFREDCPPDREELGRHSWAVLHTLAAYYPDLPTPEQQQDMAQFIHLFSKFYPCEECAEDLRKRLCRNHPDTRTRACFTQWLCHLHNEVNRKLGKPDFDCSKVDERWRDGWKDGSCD
Chain of Cytochrome P450 2C9 (P11712 whole entry, the tested form may be a part): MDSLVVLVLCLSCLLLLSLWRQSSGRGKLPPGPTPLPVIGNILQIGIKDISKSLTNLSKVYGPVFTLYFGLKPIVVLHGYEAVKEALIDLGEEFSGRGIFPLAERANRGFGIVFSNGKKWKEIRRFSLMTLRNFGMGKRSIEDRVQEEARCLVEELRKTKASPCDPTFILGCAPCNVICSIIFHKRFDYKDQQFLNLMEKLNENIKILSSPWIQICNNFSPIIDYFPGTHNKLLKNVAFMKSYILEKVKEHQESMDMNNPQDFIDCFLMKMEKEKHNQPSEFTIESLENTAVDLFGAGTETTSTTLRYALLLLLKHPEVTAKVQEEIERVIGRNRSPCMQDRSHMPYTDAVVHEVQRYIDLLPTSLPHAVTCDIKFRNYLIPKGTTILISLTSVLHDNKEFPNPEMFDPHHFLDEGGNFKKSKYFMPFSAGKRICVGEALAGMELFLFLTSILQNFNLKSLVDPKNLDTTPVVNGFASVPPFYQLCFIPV

For Cc1ccc(-c2ccc3c(c2)O[C@@H](CN(C)Cc2cccnc2)[C@H](C)CN([C@H](C)CO)S3(=O)=O)cc1, the AC50 [1] was 33.3 µM (active).
With Cc1ccc(S(=O)(=O)N/N=C/c2ccc(O)c(O)c2)cc1[N+](=O)[O-] the AC50 [2] was 1.06 µM (active).
For COc1ccc(OCCN(C)C(=O)c2cccc(S(=O)(=O)N(C)c3ccccc3)c2)cc1, the IC50 (Protein skinhead-1) was > 100 µM (inactive).
For Oc1ccccc1/C=N/n1c(S)nnc1-c1ccccc1, the IC50 [3] was 82.2 µM (active).
With O=C(O)c1cccc(N/N=C/c2cc(Br)cc(Br)c2O)c1 the AC50 [2] was 1.99 µM (active).
In the case of CCOC(=O)CCNC(C)C1COc2ccccc2O1 (centres undefined), the IC50 [3] is reported as 178 µM (active).
In the case of COC(=O)c1cc(-c2cccc(OC)c2)[nH]n1, the IC50 (Protein skinhead-1) is reported as > 100 µM (inactive).
In the case of CCN(CC)c1ccc(N/C=C2\C(=O)NC(=O)N(c3cc(OC)ccc3OC)C2=O)cc1, the EC50 [4] is reported as > 300 µM (not active), the EC50 [5] is reported as > 300 µM (not active) and the IC50 (Large T antigen) is reported as 19.8 µM (active).
With C#Cc1ccc([C@@H]2C=C(C(=O)O)O[C@H](OCC)[C@H]2CCCO)cc1 the IC50 [6] was 4.59 µM (active).
In the case of Cc1ccc(SCCNC(=O)CN2C(=O)c3ccccc3S2(=O)=O)cc1, the IC50 (Protein skinhead-1) is reported as > 100 µM (inactive).
For N#Cc1c(-c2ccco2)cc(-c2ccccc2)[nH]c1=O, the IC50 (Large T antigen) was 68.7 µM (active).
For COc1ccc2c3c(n(C)c2c1)[C@H](CO)N(Cc1ccccc1OC)CC31CN(CC2CCOCC2)C1, the AC50 [7] was 4.81 µM (active).
For CSc1cccc(NC(=O)CSc2ccc(Cl)cc2)c1, the IC50 [8] was 8.93 µM (not active).
With COc1cccc(NC(=O)CN(C)CC(=O)Nc2ccc(Cl)cc2[N+](=O)[O-])c1 the IC50 [8] was 24 µM (not active).
With O=C(NCCCN1CCc2ccccc2C1)Nc1ccc(Cl)cc1 the AC50 [1] was 3.52 µM (active), the AC50 [9] was 39.9 µM (active) and the AC50 (Cytochrome P450 2C9) was 14.1 µM (inconclusive).
For CC1(C(O)(C#CC[N+]2(C)CCCCC2)c2ccccc2)CCCC1 (centres undefined), the IC50 [6] was 9.1 µM (active).
With O=C(OCc1ccccc1)Oc1cncc(C(=O)O)c1 the AC50 [2] was 0.072 µM (active).
For COc1ccc2c3c([nH]c2c1)[C@@H](CO)N(Cc1cc(F)ccc1F)CC31CN(C(=O)C2CCC2)C1, the AC50 [7] was 6.17 µM (active).
With O=C(Nc1ccc(Cl)cc1)C1CCCN(C2=NS(=O)(=O)c3ccccc32)C1 (centres undefined) the AC50 [1] was 25.9 µM (active).
For Cc1ccc(NC(=O)CSc2ccccc2NC(=O)c2ccccc2Cl)cc1Cl, the IC50 [6] was 7.38 µM (active).
With COCCN(C(=O)COC(=O)Cc1coc2cc3c(cc12)CCC3)c1c(N)n(Cc2ccccc2)c(=O)[nH]c1=O the IC50 [6] was 6.23 µM (active).
In the case of CC(=O)c1ccc(S(=O)(=O)N2CCNC(=O)C2)cc1, the AC50 [2] is reported as 3.33 µM (active).
In the case of O=C(CSc1nnc(CNc2ccc(F)cc2)n1Cc1ccco1)NC1CC1, the IC50 (Protein skinhead-1) is reported as > 100 µM (inactive).
For COc1ccc2c3c(n(C)c2c1)[C@@H](CO)N(C(=O)Nc1ccccc1F)CC31CCN(C)CC1, the AC50 [7] was 5.95 µM (active).
With O=C(COC(=O)CC12CC3CC(CC(C3)C1)C2)Nc1cccnc1Cl the IC50 [8] was > 50 µM (not active).
With CC(C)Cn1c(S)nnc1-c1csc2c1CCCC2 the IC50 [8] was 13.5 µM (not active).
With CC(C)(C)[S@@+]([O-])N1Cc2cc(C(=O)N3CCc4ccccc4C3)nc(-c3cccc(-c4ccncc4)c3)c2[C@H]1CCO the AC50 [7] was 5.87 µM (active).
For CCN(CC)c1ccc(/C=N/NC(=O)CNC(=O)c2ccccn2)cc1, the AC50 [2] was 0.91 µM (active).
In the case of Fc1ccc(CSc2nnc(-c3ccco3)o2)cc1, the IC50 (Protein skinhead-1) is reported as 30.1 µM (active).
With Fc1ccc(OCc2nc3ccccc3s2)cc1 the IC50 (Protein skinhead-1) was > 100 µM (inactive).
In the case of O=[N+]([O-])c1ccc(CSC2=NCCS2)cc1, the AC50 [2] is reported as 5.31 µM (active).
For CC(C)c1cn([C@H]2C[C@@H]3O[C@H](CO)CC[C@@H]3O[C@@H]2CCc2ccc(C#CC3(O)CCCC3)cc2)nn1, the AC50 [7] was 6.12 µM (active).
With Cn1c(/C(C#N)=C(\O)c2ccc([N+](=O)[O-])s2)nc2ccccc21 the IC50 (Protein skinhead-1) was > 100 µM (inactive).
With C=CCNC(=O)c1ccc(Cn2c(=S)[nH]c3cc4c(cc3c2=O)OCO4)cc1 the IC50 [6] was 8.27 µM (active).
For COc1cccc2cc(C(=O)Oc3ccc(NC(C)=O)cc3)c(=O)oc12, the IC50 [3] was 34.9 µM (active).
With CN(C)S(=O)(=O)NC(c1ccccc1)c1ccccc1 the IC50 (Protein skinhead-1) was > 100 µM (inactive).
With C[C@H](CO)N1C[C@H](C)[C@H](CN(C)C(=O)Nc2ccc(F)cc2)OCc2ccccc2-c2c(n(C)c3ccccc23)C1=O the AC50 [10] was < 0.26 µM (active), the AC50 [1] was < 0.26 µM (active) and the AC50 [9] was < 0.26 µM (active).
In the case of CCOC(=O)/C=C1\CC(C(=O)OCC)Oc2c(OC)cccc21 (centres undefined), the IC50 [6] is reported as 16.7 µM (active).
With COC(=O)c1ccc(NC(=O)c2cccc(Cl)c2)o1 the AC50 [2] was 20.9 µM (active).
In the case of COc1cc(/C=N/NC(=O)CCc2c(C)n[nH]c2C)ccc1O, the IC50 (Large T antigen) is reported as 12.9 µM (active).
In the case of Cc1ccc2c(c1)N/C(=C\C(=O)CC(C)C)C(=O)O2, the EC50 [4] is reported as > 300 µM (not active), the EC50 [5] is reported as > 300 µM (not active) and the IC50 (Large T antigen) is reported as 7.15 µM (active).
